In US9241939B2, “Combination of (a) a phosphoinositide 3-kinase inhibitor and (b) a modulator of RAS/RAF/MEK pathway” (Novartis AG, priority 2008, dated 2016):
Where two headings read alike, the source gives them in different places.

How the values were obtained:
[1] = tested on: A549 cells; experiment: standard methylene blue proliferation assay; type: cell-based
Protocol: The KRAS mutant NSCLC cell line was used in a standard methylene blue proliferation assay.
A549 cells were incubated with increasing amount of either compound A or PD0325901 (NVP-LBW624) alone or in combination, for 72 h and proliferation assessed with a standard methylene blue assay. The G150 were determined and CI quantified with the CalcuSyn software.

[2] = tested on: Akt; p70S6K or ERK in A549 cells; experiment: Western-blotting of phosphorylated Akt, p70S6K and ERK; type: cell-based; settings: incubated alone, 30 min, PD03251901 250 nM
Protocol: FIG. 1: A549 cells were incubated either with compound A, PD03251901 (250 nM) alone or in combination for 30 min. Cells were then harvested and estimation of phosphorylated levels of either Akt; p70S6K or ERK done by regular Western-blotting.

[3] = tested on: BN472 tumors; experiment: BN472 tumor model; type: in vivo; settings: rat, weak and not significant
Protocol: FIG. 2: Rat bearing BN472 tumors were treated with the indicated compound at the indicated dose and schedule, either alone or in combination. Evolution of tumor growth were followed by callipering throughout the course of the study. *, P<0.05 (Dunnett's).
FIG. 3: Rat bearing BN472 tumors were treated with the indicated compound at the indicated dose and schedule, either alone or in combination. Evolution of body weight were followed throughout the course of the study. *, P<0.05 (Dunnett's).
In the BN472 tumor model administration of compound A at a dose of 10 mg/kg (p.o., 1q24h) or the Raf inhibitor Raf265 (at a dose of 2.5 mg/kg, po, […]) produced a weak and not significant antitumor activity (expressed as T/C) of either 83 and 76. The combination of compound A (10 mg/kg) with RAF265, however, produced a strong and statistically significant antitumor activity with a T/C of 34% (FIG. 2).

Structure (SMILES) | GI50 ([1]; A549 cells, 72 h, compound A and PD0325901 (NVP-LBW624) in combination, read-out: GI50 (in nM) in combination) [nM] | Combination Index (CI) ([1]; A549 cells, 72 h, compound A with PD0325901 (NVP-LBW624), CalcuSyn software) | GI50 ([1]; Homo sapiens, A549, 72 h, A549 cells (KRAS mutant NSCLC), 72 h, single agent, read-out: GI50 (in nM) alone) [nM] | GI50 ([1]; Homo sapiens, A549, 72 h, A549 cells, 72 h, compound A and PD0325901 (NVP-LBW624) in combination, read-out: GI50 (in nM) in combination) [nM] | times less BEZ235 required for a similar decrease in proliferation ([1]; in presence of PD0325901) [times] | block of respective downstream effectors (ERK and Akt) [2] | antitumor activity (expressed as T/C) ([3]; compound A 10 mg/kg p.o. 1q24h alone) | antitumor activity (expressed as T/C) ([3]; Raf265 2.5 mg/kg po q24h alone) | GI50 ([1]; Homo sapiens, A549, 72 h, read-out: GI50 (in nM) alone) [nM] | GI50 ([1]; Homo sapiens, A549, 72 h, read-out: GI50 (in nM) in combination) [nM]
Cn1c(=O)n(-c2ccc(C(C)(C)C#N)cc2)c2c3cc(-c4cnc5ccccc5c4)ccc3ncc21 [Compound A, 2-methyl-2-[4-(3-methyl-2-oxo-8-quinolin-3-yl-2,3-dihydro-imidazo[4,5-c]quinolin-1-yl)-phenyl]-propionitrile] | 4.46 | 0.718 | 9.41 | 3.2 | 3 | do block their respective downstream effectors | 83 |  |  | 
Cn1c(Nc2ccc(C(F)(F)F)cc2)nc2cc(Oc3ccnc(-c4ncc(C(F)(F)F)[nH]4)c3)ccc21 [RAF265, reference compound] |  |  |  |  |  |  |  | 76 |  | 
O=C(NOC[C@H](O)CO)c1ccc(F)c(F)c1Nc1ccc(I)cc1F [PD0325901, reference compound] |  |  |  |  |  | do block their respective downstream effectors |  |  | 36.8 | 11.5
